Results: patent publication US20170226139A1, “CRYSTALLINE SALTS OF (Z)-O-OCTADEC-9-EN-1-YL O,O-DIHYDROGEN PHOSPHOROTHIOATE” (priority 2013, published 2017)
Marks after values point to notes of the source that are not given here.

Legend:
[1] = test system: C57BL/6 murine Animal Model of GI-ARS; assay: Survival after partial body irradiation (tibial sparing), murine Animal Model of GI-ARS (Studies 4.1.4, 4.1.5, 4.1.8); format: in vivo, C57BL/6 mice; conditions: for Survival Day 10, Rx100 arm (survivors/animals) / Survival Day ≧30, Rx100 arm (survivors/animals) / Survival Advantage Day 10 / Survival Advantage Day ≧30: Murine (♀), start +24; for Survival Advantage Day 10 / Survival Advantage Day ≧30 / Survival advantage 0.3 mg/kg / Survival advantage 3 mg/kg / Survival advantage: vs vehicle; for Survival, 0.3 mg/kg / Survival, 3 mg/kg / Survival advantage 0.3 mg/kg / Survival advantage 3 mg/kg: Study 4.1.4, Phase 2 + 3; for Survival, 0.3 mg/kg / Survival, 3 mg/kg: q12 h × 6 from 24 h after PBI; for Survival advantage / Survival, Rx100 at 3 mg/kg/12 × 6: Study 4.1.8, Phase 1 + 2, female C57BL/6; for Survival advantage: 3 mg/kg/12 h × 6
Experimental: (§1) These Animal Model studies were all conducted using partial body irradiation (PBI) with tibial bone marrow sparing except the earliest study which was performed with Total Abdominal Irradiation (TAI). The male Rhesus macaque model was developed by MacVittie. The female inbred murine PBI GI-ARS Animal Model was developed by the inventors. […] Differences in radiation sensitivity by gender in rodent species are well appreciated. We are not aware of PBI GI-ARS models other than these that meet criteria required to conduct a prospective, blinded, controlled, randomized study of efficacy.
A synopsis from each of the completed three sequential efficacy studies in the C57BL/6 murine partial body irradiation model of GI-ARS is provided below. […] Study WBS 4.1.8 was a pilot study of the efficacy of Rx100 at the preferred dose and regimen. The latter two studies (4.1.5) and 4.1.8) were blinded, randomized and controlled. The former study was not blinded but was controlled and randomized (WBS 4.1.4).
Study was initiated on Feb. […] Experiments were started on Feb.
Phase 1 (n=32 per group per sex) was designed as an expanded pilot dose-ranging study (0.3, 1.0, 3.0, and 10 mg/kg) to select two Rx100 doses for additional testing in phases 2 and 3. Phases 2 and 3 (enrolled n=64 per group per gender) were conducted at the selected Rx100 doses (0.3 and 3.0 mg/kg) to ensure sufficient sample size to power an assessment of survival advantage. The latter study was conducted in two phases based on facility limitations (up to 120 animals can be handled readily in one radiation sequence). […] A higher radiation dose was used in Phases 2 and 3 and two intermediate doses selected empirically (0.3 and 3.0 mg/kg). The study was carried out to 30 days post irradiation in all phases. The primary endpoint in this study was survival at Day 10. The modified intent-to-treat primary study population was defined as those animals that survived anesthesia following irradiation. Survival advantage was calculated as the percent survival in the active arm minus the percent survival in the vehicle arm for males and females separately with pairwise comparison by Chi-Square as a test of significance without adjustment for multiple testing. Significance was declared at the 0.05 level (two-sided). […] See Kaplan-Meier FIG. 32.
The study was initiated on Apr. […] Experiments were started on Apr.
Under the study design, four radiation doses were selected for vehicle administration. […] The study was performed in female mice only. […] Animals were randomized but stratified by weight to assure equivalent weights in each arm. The study was conducted in two phases to assure adequate subject numbers based on limitations on the number of animals that can be processed per phase (120). The primary endpoint in this study was survival at Day 10 but the study was carried out to Day 30.

[2] = test system: female murine Animal Model of GI-ARS (TAI); assay: Survival after total abdominal irradiation (TAI), murine model of GI-ARS (UTHSC, 2010); format: in vivo; conditions: UTHSC 2010 (TAI), 0.1 mg/kg, start +24, 15.0 Gy, non-GLP
Experimental: as §1

[3] = test system: Male Sprague-Dawley rats; assay: Respiratory system safety pharmacology (plethysmograph); format: in vivo
Experimental: Male Sprague-Dawley rats (n=6/group) were administered Rx100.lysine as a single oral (gavage) doses of 0 (10 mM histidine in sterile water for injection, USP), 1.81, 6.33, and 18.1 mg/kg and monitored for respiratory function. Animals were placed in a plesthymograph and monitored at pre-dose and for consecutive 30 minute averages beginning 30 minutes postdose through 6 hours postdose and again at 24 hours postdose. Parameters evaluated included tidal volume, respiratory rate and minute volume. […] It was concluded that there were no adverse effects on the respiratory system in rats at doses of 1.81 mg/kg.

[4] = Rx Bio 415, 3 mg/kg (q12 × 6), 15.62-64 Gy
[5] = RxBio 414, 0.3 mg/kg (q12 × 6), 15.65-8 Gy
[6] = RxBio 414, 3 mg/kg (q12 × 6), 15.65-8 Gy
[7] = RxBio 418F, 3 mg/kg (q12 × 6), 15.55-67 Gy (pooled)
[8] = RxBio 418F, 3 mg/kg (q12 × 6), 15.55 Gy
[9] = RxBio 418F, 3 mg/kg (q12 × 6), 15.62 Gy
[10] = RxBio 418F, 3 mg/kg (q12 × 6), 15.67 Gy
[11] = Study 4.1.5, female, 3 mg/kg q12 h×6 starting 24 hours after PBI

CCCCCCCC/C=C\CCCCCCCCOP(O)(O)=S [Rx100, (Z)—O-octadec-9-en-1-yl O,O-dihydrogen phosphorothioate] was tested, and the “Survival Day 10, Rx100 arm (survivors/animals)” value [1, 4] was 18/32, the “Survival Day ≧30, Rx100 arm (survivors/animals)” value [1, 4] was 9/32 and the “Survival Advantage Day 10” value [1, 4] was 50%. The “Survival Advantage Day ≧30” value [1, 4] was 28%, the “Survival Day 10, Rx100 arm (survivors/animals)” value [1, 5] was 29/60 and the “Survival Day ≧30, Rx100 arm (survivors/animals)” value [1, 5] was 20/60. The “Survival Advantage Day 10” value [1, 5] was 5%, the “Survival Advantage Day ≧30” value [1, 5] was 23% and the “Survival Day 10, Rx100 arm (survivors/animals)” value [1, 6] was 41/64. For the same compound, the “Survival Day ≧30, Rx100 arm (survivors/animals)” value [1, 6] was 23/64, the “Survival Advantage Day 10” value [1, 6] was 23% and the “Survival Advantage Day ≧30” value [1, 6] was 26%. The “Survival Day 10, Rx100 arm (survivors/animals)” value [1, 7] was 52/105, the “Survival Day ≧30, Rx100 arm (survivors/animals)” value [1, 7] was 42/105 and the “Survival Advantage Day 10” value [1, 7] was 32%. For the same compound, the “Survival Advantage Day ≧30” value [1, 7] was 25%, the “Survival Day 10, Rx100 arm (survivors/animals)” value [1, 8] was 16/34 and the “Survival Day ≧30, Rx100 arm (survivors/animals)” value [1, 8] was 13/34. The “Survival Advantage Day 10” value [1, 8] was 25%, the “Survival Advantage Day ≧30” value [1, 8] was 22% and the “Survival Day 10, Rx100 arm (survivors/animals)” value [1, 9] was 21/36. The “Survival Day ≧30, Rx100 arm (survivors/animals)” value [1, 9] was 17/36, the “Survival Advantage Day 10” value [1, 9] was 47% and the “Survival Advantage Day ≧30” value [1, 9] was 39%. For the same compound, the “Survival Day 10, Rx100 arm (survivors/animals)” value [1, 10] was 15/35, the “Survival Day ≧30, Rx100 arm (survivors/animals)” value [1, 10] was 12/35 and the “Survival Advantage Day 10” value [1, 10] was 23%. The “Survival Advantage Day ≧30” value [1, 10] was 14%, the “Survival, 0.3 mg/kg” value ([1]; Females, Day 10) was 48.3% (29/60) and the “Survival, 3 mg/kg” value ([1]; Females, Day 10) was 64.1% (41/64). For the same compound, the “Survival advantage 0.3 mg/kg” value ([1]; Females, Day 10) was 7.3%, the “Survival advantage 3 mg/kg” value ([1]; Females, Day 10) was 23.1%* and the “Survival, 0.3 mg/kg” value ([1]; Females, Day 30) was 33.3% (20/60). For the same compound, the “Survival, 3 mg/kg” value ([1]; Females, Day 30) was 35.9% (23/41), the “Survival advantage 0.3 mg/kg” value ([1]; Females, Day 30) was 23.5%* and the “Survival advantage 3 mg/kg” value ([1]; Females, Day 30) was 26.1%*. For the same compound, the “Survival, 0.3 mg/kg” value ([1]; Males, Day 10) was 38.2% (21/55), the “Survival, 3 mg/kg” value ([1]; Males, Day 10) was 41.4% (24/58) and the “Survival advantage 0.3 mg/kg” value ([1]; Males, Day 10) was −2.2%. For the same compound, the “Survival advantage 3 mg/kg” value ([1]; Males, Day 10) was 1.0%, the “Survival, 0.3 mg/kg” value ([1]; Males, Day 30) was 12.7% (7/55) and the “Survival, 3 mg/kg” value ([1]; Males, Day 30) was 17.2% (10/58). For the same compound, the “Survival advantage 0.3 mg/kg” value ([1]; Males, Day 30) was −17.1%, the “Survival advantage 3 mg/kg” value ([1]; Males, Day 30) was 12.6% and the “increase in survival at Day 10” value ([1]; Study 4.1.4, female, 0.3 mg/kg/12 h/6, not statistically significant) was 7.3%. The “survival advantage at Day 10” value ([1]; Study 4.1.4, female, 3 mg/kg/12 h×6 starting 24 hours after PBI, statistically significant) was 23.1%, the “survival benefit by Day 30” value ([1]; Study 4.1.4, female, both 0.3 mg/kg and 3 mg/kg) was “a benefit was seen” and the “survival benefit in male animals” value ([1]; Study 4.1.4, male) was “no survival benefit”. For the same compound, the “survival advantage at Day 10” value [1, 11] was 50%, the “survival advantage through Day 30” value [1, 11] was 28% and the “efficacy with delayed start of dosing” value ([1]; Study 4.1.5, female, dosing started ≧48 hours after radiation) was “Efficacy was not seen”. The “efficacy and toxicity in male mice” value ([1]; Study 4.1.5, male, 3 mg/kg q12 h×6) was “neither efficacy nor toxicity was seen”, the Survival advantage ([1]; 15.55 Gy, Day 10) was 24.9%* and the Survival advantage ([1]; 15.55 Gy, Day 30) was 21.5%*. For the same compound, the Survival advantage ([1]; 15.62 Gy, Day 10) was 47.2%*, the Survival advantage ([1]; 15.62 Gy, Day 30) was 38.9%* and the Survival advantage ([1]; 15.67 Gy, Day 10) was 22.9%*. For the same compound, the Survival advantage ([1]; 15.67 Gy, Day 30) was 14.3%, the “Survival, Rx100 at 3 mg/kg/12 × 6” value ([1]; 15.55 Gy, Day 10) was 47.1% and the “Survival, Rx100 at 3 mg/kg/12 × 6” value ([1]; 15.55 Gy, Day 30) was 38.2%. For the same compound, the “Survival, Rx100 at 3 mg/kg/12 × 6” value ([1]; 15.62 Gy, Day 10) was 58.3, the “Survival, Rx100 at 3 mg/kg/12 × 6” value ([1]; 15.62 Gy, Day 30) was 47.2% and the “Survival, Rx100 at 3 mg/kg/12 × 6” value ([1]; 15.67 Gy, Day 10) was 42.9%. The “Survival, Rx100 at 3 mg/kg/12 × 6” value ([1]; 15.67 Gy, Day 30) was 34.3%, the “survival advantage at Day 10 and Day 30” value ([1]; Study 4.1.8, female, 3 mg/kg q12 h×6 starting at 24 hours after PBI) was “clinically and statistically significant survival advantage” and the “Day 10 survival” value ([1]; females, treatment administered starting at 24 hours after radiation) was 56.3%. The survival ([1]; male mice, comparable group) was 72%, the “Survival, Rx100 arm (survivors/animals)” value ([2]; single cell under Day 10/Day ≧30) was 10/14 and the “Survival advantage” value ([2]; single cell under Day 10/Day ≧30, vs vehicle) was 42%.

In the case of CCCCCCCC/C=C\CCCCCCCCOP(O)(O)=S [Rx100.L-Lysine, (Z)—O-octadec-9-en-1-yl O,O-dihydrogen phosphorothioate], the “effects on respiratory parameters” value ([3]; 1.81 mg/kg) is reported as “No statistically significant or biologically meaningful effects”, the “increase in respiratory rates” value ([3]; 6.33 mg/kg) is reported as 68% and the “reduction in tidal volume” value ([3]; 6.33 mg/kg) is reported as 29%. For the same compound, the “respiratory values 24 hours post dose” value ([3]; 6.33 mg/kg) was “essentially normal”, the “increase in respiratory rates” value ([3]; 18.1 mg/kg) was 65% and the “reduction in tidal volume” value ([3]; 18.1 mg/kg) was 32%. The “respiratory values 24 hours post dose” value ([3]; 18.1 mg/kg, reduced in magnitude) was “still showed effects” and the “dose with no adverse effects on the respiratory system” value ([3]; male, Sprague-Dawley, rat, in vivo, oral, 24 h) was 1.81 mg/kg.
